One assay concerns ccl2 promoter. Kind of assay: ChIP of NF-κB and IRF-1 at the ccl2 promoter in primary astrocytes. The class given is cell-based, mouse. The source says:
FIGS. 4a-m. B4GALT6 regulates ccl2 transcriptional activity in astrocytes. (a) Murine ccl2 promoter. (b) Luciferase activity in 293T cells transfected with the ccl2 luciferase reporter plus one of the following constructs encoding IRF-1, p65 or an empty control vector (Empty). Results are relative to secreted alkaline phosphatase activity, presented as fold induction from empty vector. Data from three independent experiments, statistical analysis by Student's t-test. (c) ChIP analysis of the interaction of NF-κB, and IRF-1 with the ccl2 promoter in primary cultured astrocytes, pre-treated with PDMP and LacCer and activated with LPS/IFNγ (as in FIG. 3), 2 hours following LPS/IFNγ induction. (d-h) Recruitment of inflammatory monocytes (defined either as of CD11b^+ Ly6C^high or CD11b^+CD45^high cells) to the CNS of EAE NOD mice treated with PDMP or vehicle, as in (FIG. 1k), analyzed by flow cytometry and presented as cell frequency (e, g) and total cell numbers (f, h). Representative data of three independent experiments. […] (i) The frequency and number of CD11b^+ Ly6C^high monocytes as determined in the CNS 10 days after the i.c.v. injection of astrocytes-specific shRNA lentivirus as in (FIG. 3j). […] (j) monocytes were pre-treated for 1 h with PDMP, LacCer, both (LacCer+PDMP), or vehicle, and monocytes chemotaxis was measured using a transwell chamber system. […]

A further assay deals with Ly6C^high monocytes. Description: Response of Ly6C^high monocytes to LPS/IFNγ (nCounter). The class given is cell-based, mouse. To be noted: LPS/IFNγ 6 h.

Regarding `CCCCCCCCCC(=O)N[C@H](CN1CCOCC1)[C@H](O)c1ccccc1` [PDMP, D-threo-1-phenyl-2-decanoylamino-3-morpholino-1-propanol], the “recruitment of NF-κB and IRF-1 to the ccl2 promoter” value in the assay with ccl2 promoter (astrocytes activated with LPS/IFNγ, 2 hours) is listed as “arrested”. Further, the “monocyte response to LPS/IFNγ stimulation” value with Ly6C^high monocytes is “did not affect”.
For lactosylceramide [LacCer], the “recruitment of NF-κB and IRF-1 to the ccl2 promoter, LacCer added to PDMP” value with ccl2 promoter (LacCer + PDMP, LPS/IFNγ) is “abrogated”. Further, the “monocyte response to LPS/IFNγ stimulation” value in the assay on Ly6C^high monocytes is on record as “did not affect”.

Values taken from patent US9927437B2, “Treating neurodegenerative disease” (THE BRIGHAM AND WOMEN'S HOSPITAL, INC., priority 2013, dated 2018).
